Experiments:
platelet NADPH oxidase = assay: Platelet NADPH oxidase activation: ROS production in AA-stimulated platelets by cytofluorimetry; format: cell-based, human; settings: AA 0.5 mM
Description: To obtain platelet rich plasma (PRP) from HC and HS patients, samples were centrifuged 15 min at 180 g. To avoid leukocyte contamination, only the top 75% of the PRP was collected. Platelet pellet was suspended in HEPES buffer, pH 7.4 (2×10^8 platelets/mL, unless otherwise noted) and processed differently according to the type of experiment to be carried out.
To test NADPH oxidase activity, the levels of ROS in platelets from 5 human healthy subjects were measured by cytofluorimetry in the presence and in the absence of specific NADPH oxidase inhibitors, such as apocynin and the gp91^phox blocking peptide gp91ds-tat. Platelets were incubated with 2′,7′-dichlorofluorescin diacetate […] for 15 minutes at 37° C. After incubation, 100 μl of the sample was treated with arachidonic acid (AA, 0.5 mM) in presence or less of apocynin (100 μM) or the gp91^phox specific blocking peptide (gp91ds-tat, 50 μM). Then 10 μl of each sample was diluted with 1 ml of PBS and analyzed by flow cytometry. Basal OFR level in resting platelets was expressed as mean fluorescence (MF), AA-induced OFR production was expressed as stimulation index (S.I.=mean level of fluorescence in AA-stimulated platelet/mean level of fluorescence in unstimulated platelets) (Pignatelli P et al. Blood (1998) 95:484-490.

platelets = assay: sgp91phox in supernatant of platelets by ELISA with the monoclonal antibody of the invention; format: cell-based, human
[1] = test system: polymorphonuclear leukocytes (PMN); assay: sgp91phox in supernatant of PMN by ELISA; format: cell-based, human; settings: PMA 10 μM; unstimulated 1.53±0.66
Description: Polymorphonuclear leukocytes (PMN) were isolated from freshly taken EDTA-blood from healthy volunteers (n=5, healthy subjects) by dextran enhanced sedimentation of red blood cells, Ficoll-Histopaque density centrifugation, lysis of remaining erythrocytes with distilled water and washing of cells with Hank's balanced salt solution (HBSS) in the absence of any divalent cations. Finally, the cell pellet was suspended in 1 ml of HBSS and stimulated with or without 10 μM of phorbol 12-myristate 13-acetate (PMA). To evaluate sgp91phox in PMN the supernatant was analyzed by ELISA method as above reported.
(§1) To evaluate the source of sgp91phox we isolated platelets, PMN and lymphocytes/monocytes from the same blood sample.

sgp91phox = sgp91phox in sera of the clinical study by the ELISA assay of the invention; format: in vivo, human; settings: group B
Description: The samples tested were sera from the same sampling of the clinical study of Example 2, stored frozen at −80° C. up to the use.
The proprietary primary policlonal antibody against SEQ ID NO 1 and the primary monoclonal antibody against SEQ ID NO 3 (i.e., the proprietary antibody of the present invention from the hybridoma deposited at ATCC on Jun. 10, 2010 under No. SD-6311) already described above were diluted 1:100 with coating buffer (catalog. C3041, Sigma Chemicals) and 100 μl of this primary antibody solution were placed in 96-well ELISA plates for 1 h at room temperature (RT). After incubation the content of each well in the plates was removed and the wells were washed three times with washing buffer (Tris-buffered saline 50 mM, pH 8.0, Tween 20; catalog. T9039, Sigma Chemicals).
Subsequently, 200 μl of saturation buffer containing 1% BSA (catalog T6789, Sigma Chemicals) were added to the wells for 30 minutes at RT. The wells were then washed three times with the washing buffer, as above.
100 μl of standard or of sample to be assayed were then added to the wells and the incubation was carried out for 1 h at RT.
A standard curve was obtained by using increasing concentrations of the gp91^phox peptide of SEQ ID NO 1 or of the peptide of SEQ ID NO 3 (i.e., 64 pg/ml; 32 pg/ml; 16 pg/ml; 8 pg/ml) obtained by diluting the peptides in buffer, and incubated for 1 h see FIG. 4, panel A and panel B.
100 μl of a secondary goat-anti-rabbit IgG-HRP antibody (Santa Cruz, catalog sc2004) or of a secondary goat anti-mouse IgG-HRP antibody (Santa Cruz, catalog sc 2060) diluted 1:100 with coating buffer, were then incubated at RT for 1 h.
After aspirating the contents of the wells and washing three times with washing buffer, as described above, 100 μl of substrate (Santa Cruz, catalog SK-4400) were added to the wells for 30 minutes at RT. At the end of the incubation, 100 μl of H2SO4 2M (Merck, catalog 30148297) were also added to the wells. Subsequently, reading of the developed color was carried out with a spectrophotometer at 450 nm.
The final concentration of the samples were calculated by using the proper standard curve obtained with a gp91^phox peptide, as described above.

platelet gp91phox = assay: gp91phox expression on platelets by flow cytometry in the clinical study; format: in vivo, human; settings: after 30 days of treatment
Description: To evaluate gp91^phox expression on platelets, 50 μl of stabilized whole blood (see above) were incubated for 30 minutes with 5 μl of monoclonal antibody against gp91^phox (20 μg/ml; Santa Cruz), and 5 μl of PE-conjugated monoclonal antibody against CD61 (Coulter) (20 μg/ml), respectively, as described in Martino F. et al., PEDIATRICS (2008), supra. The samples incubated with the monoclonal antibody against gp91^phox were then incubated with a secondary IgG FITC-conjugated antibody against mouse. After incubation, 1 ml of 1× PBS was added to proceed with the cytofluorimetric analysis.
Isotypic controls were carried out by preparing a sample with a non-specific anti-mouse IgG-FITC e IgG1-PE with the same ratio f/p for FITC e PE. The adequate concentration of the monoclonal antibodies used was determined in preliminary tests (not shown).
All the samples were analyzed within 15 minutes from dilution. FITC fluorescence was detected with an Epics XL-MCL cytometer (Coulter, Milan Italy) at 525 nm, while PE fluorescence was detected at 575 nm. All the parameters were grouped with a 4-decade logarithmic amplification.
Spectral overlap was balanced by fluorescence compensation, as defined in preliminary tests. […] Platelets and platelet-platelet aggregates were identified by logical gating according to their CD61 phycoerythrin fluorescence and forward scatter characteristics. […]

[2] = test system: hypercholesterolemic patients; settings: group B, diet + atorvastatin 10 mg/day, end of 30 days, p<0.001
lymphocytes/monocytes = assay: sgp91phox in supernatant of lymphocytes/monocytes by ELISA; format: cell-based, human; settings: LPS 100 ng/ml; unstimulated 1.11±0.55
Description: Blood samples were collected in heparinized tubes (10 IU/ml). Lynphocytes/Monocyte were isolated after centrifugation of the blood from healthy volunteers (n=5, healthy subjects) with a polysucrose-sodium diatrizoate solution, 1.077 g/ml density and 280 mOsm osmolarity (Lymphoprep; Nycomed, Oslo, Norway) at 800 g at 20° C. The Lynphocytes/Monocyte cell layer was collected and the cells were thus washed two times in a solution of cold phosphate-buffered saline (pH 7.2), supplemented with 1% fetal calf serum and 2 mmol/l EDTA (Sigma-Aldrich, Milano, Italy). The cell suspension was stimulated with or without lipopolysaccharide (100 ng/ml) (LPS), sgp91 content in the supernatant was evaluated by ELISA method as above reported.
as §1

[3] = 30 days atorvastatin vs baseline

For `CCCCC/C=C\C/C=C\C/C=C\C/C=C\CCCC(=O)O` [AA, arachidonic acid], the “ROS production after platelet activation” value (platelet NADPH oxidase) was “increase” and the “sgp91phox in supernatant of stimulated platelets” value (platelets; AA-stimulated, unstimulated 1.18±0.84) was 7.05 ± 2.04 pg/mL.

`CCCCCCCCCCCCCC(=O)O[C@@H]1[C@@H](C)[C@@]2(O)[C@@H](C=C(CO)C[C@]3(O)C(=O)C(C)=C[C@@H]23)[C@@H]2C(C)(C)[C@]12OC(C)=O` [PMA, phorbol 12-myristate 13-acetate] was tested, and the “sgp91phox in supernatant of stimulated PMN” value [1] was 11.85 ± 3.23 pg/mL.

With `COc1cc(C(C)=O)ccc1O` [apocynin] the “effect on AA-induced ROS production in platelets” value (platelet NADPH oxidase; apocynin 100 μM, gp91ds-tat 50 μM) was “inhibited” and the “levels of sgp91phox shed in the cell medium of AA-activated platelets” value (platelets; specific NADPH oxidase inhibitors, ELISA of supernatant) was “decrease”.

`CC(C)c1c(C(=O)Nc2ccccc2)c(-c2ccccc2)c(-c2ccc(F)cc2)n1CC[C@@H](O)C[C@@H](O)CC(=O)O` [atorvastatin] was tested, and the “reduction in sgp91phox, ELISA with monoclonal antibody (SD-6311)” value (sgp91phox; [3]) was −25%, the “reduction in sgp91phox, ELISA with polyclonal antibody” value (sgp91phox; [3]) was −33% and the “sgp91phox serum level, ELISA with monoclonal antibody (SD-6311)” value (sgp91phox; end of 30 days atorvastatin, from 32.5±4.6 at baseline, p<0.001) was 23.5 ± 6.5 pg/mL. The “sgp91phox serum level, ELISA with polyclonal antibody” value (sgp91phox; end of 30 days atorvastatin, from 36.6±5.6 at baseline, p<0.001) was 24.5 ± 7.7 pg/mL, the “variation in platelet gp91phox after treatment” value (platelet gp91phox) was “no significant variation” and the serum total cholesterol ([2]; from 276±46 at baseline) was 208 ± 38 mg/dL. The urinary isoprostanes levels ([2]; from 383±51 at baseline) was 241±58 pg/mg of creatinine.

In the case of lipopolysaccharide [LPS], the “sgp91phox in supernatant of stimulated lymphocytes/monocytes” value (lymphocytes/monocytes) is reported as 7.5 ± 2.64 pg/mL.
